According to US6933296B2, “Compounds effective as β2-adrenoreceptor agonists as well as PDE4-inhibitors” (Altana Pharma B.V., priority 2000, dated 2005):

Legend:
human eosinophils = assay: Inhibition of C5a-stimulated chemiluminescence in human eosinophils; format: cell-based; conditions: for IC30: Eosinophil, read-out: Inhibition of C5a-stimulated chemiluminescence [-logIC30 (mol/l)] (converted)
Description: c) Inhibition of C5a-stimulated Chemiluminescence in Human Eosinophils
Eosinophils were purified essentially as described in detail elsewhere (Hatzelmann A, Tenor H and Schudt C, Differential effects of non-selective and selective phosphodiesterase inhibitors on human eosinophil functions. Brit J Pharmacol 114: 821-831, 1995). Briefly, total granulocytes were first purified from blood (anticoagulated with 0.3% w/v sodium citrate) by dextran sedimentation, centrifugation on Ficoll Paque and hypotonic lysis of remaining red blood cells. For the further purification of the eosinophil fraction the magnetic cell separation (MACS) system from Miltenyi Biotec (Bergisch-Gladbach, Germany) was applied. Eosinophils were separated from neutrophils by negative selection using anti-CD16 microbeads in a two-step protocol using D- and BS-(formerly called B2-) separation columns. By this method human eosinophils with a purity of >99% and a viability of >97% were obtained.
The chemiluminescence (CL) assay was essentially performed as described (Hatzelmann et al., 1995). Briefly, measurements were performed in a “CL-buffer” (140 mM NaCl, 5 mM KCl, 1 mM MgCl2, 10 mM HEPES, pH 7.4) containing 1 mM CaCl2, 1 mg/ml glucose, 0.05% (w/v) BSA, 10 μM luminol and 4 μM microperoxidase (all values correspond to final concentrations in the assays) in a total volume of 0.5 ml at a cell concentration of 10^6 cells/ml. Aliquots (0.4 ml) of the cell suspension (containing luminol and microperoxidase) were preincubated for 5 min at 37° C. in the absence or presence of inhibitors (0.05 ml). Stock solutions of the inhibitors (10 mM) were prepared in DMSO and diluted 1:100 (v/v) in CL-buffer; subsequent dilutions were made in 1% DMSO/CL-buffer to achieve the final drug concentrations in the assays at a DMSO concentration of 0.1% (v/v) which by itself only weakly affected the CL response. […] After preincubation, the assays were transferred into a “Multi-biolumat LB 9505C” from Berthold (Wildbad, Germany) and stimulated by the addition of 0.05 ml C5a (dissolved in CL-buffer; 100 nM final concentration). CL was continuously recorded for 1 min (C5a) and the AUC (area under the curve) calculated. Inhibition of CL by the compounds under these conditions is given as −log IC30 (mol/l).

PDE4 = assay: Inhibition of PDE4 activity (cytosol from human neutrophils, [3H]cAMP hydrolysis); format: biochemical; conditions: 0.5 μM cAMP, Motapizone 1 μM, DMSO 0.5% for (some of) examples 1-19, 1% from example 20
Procedure: Method for Measuring Inhibition of PDE4 Activity
PDE4 activity was determined as described by Thompson et al. (Adv Cycl Nucl Res 10: 69-92, 1979) with some modifications (Bauer and Schwabe, Naunyn-Schmiedeberg's Arch Pharmacol 311: 193-198, 1980). At a final assay volume of 200 μl (96well microtiter plates) the assay mixture contained 20 mM Tris-HCl (pH 7.4), 5 mM MgCl2, 0.5 μM cAMP, [^3H]cAMP (about 30,000 cpm/assay), the test compound and an aliquot of cytosol from human neutrophils which mainly contains PDE4 activity as described by Schudt et al. (Naunyn-Schmiedeberg's Arch Pharmacol 344: 682-690, 1991); the PDE3-specific inhibitor Motapizone (1 μM) was included to suppress PDE3 activity originating from contaminating platelets.
To minimize problems with the solubility of the compounds, starting from example 20 serial dilutions of the compounds were prepared directly in DMSO and further diluted 1:100 (v/v) in the assays to obtain now the final concentrations of the inhibitors at a DMSO concentration of 1% (v/v) which by itself only slightly affected PDE4 activity.
After preincubation for 5 min at 37° C., the reaction was started by the addition of substrate (cAMP) and the assays were incubated for further 15 min at 37° C. 50 μl of 0.2 N HCl was added to stop the reaction and the assays were left on ice for about 10 min. Following incubation with 25 μg 5′-nucleotidase (Crotalus atrox snake venom) for 10 min at 37° C., the assays were loaded on QAE Sephadex A-25 (1 ml bed volume). The columns were eluted with 2 ml of 30 mM ammonium formiate (pH 6.0) and the eluate was counted for radioactivity. Results were corrected for blank values (measured in the presence of denatured protein) which were below 5% of total radioactivity. […] The IC50-values for the compounds according to the invention for the inhibition of the PDE4 activity were determined from the concentration-inhibition curves by nonlinear-regression.

[1] = 100 nM C5a, 100 nM salbutamol included as additional cAMP trigger

Row | Compound | melting point | IC30 (human eosinophils; [1]) | Inhibition of PDE4 activity [-logIC50] (PDE4) | effect on the CL response by itself (human eosinophils; 100 nM final concentration, C5a-stimulated) | Inhibition of C5a-stimulated chemiluminescence [-logIC30 (mol/l)] (human eosinophils; [1])
1 | COc1ccc(C2=NN(c3ccc(OCCNCC(O)c4cc(Cl)c(N)c(Cl)c4)cc3)C(=O)[C@@H]3CC=CC[C@H]23)cc1OC.O=C(O)C(=O)O (stereo partly drawn) | 136 to 138 °C | – | – | – | –
2 | COc1ccc(C2=NN(C3CCN(CCS(=O)(=O)CCNCC(O)c4cc(Cl)c(N)c(Cl)c4)CC3)C(=O)[C@@H]3CC=CC[C@H]23)cc1OC.O=C(O)/C=C/C(=O)O (stereo partly drawn) | 137 to 138 °C | – | – | – | –
3 | CCOc1ccc(C2=NN(C3CCN(C(=O)CNCC(O)c4cc(Cl)c(N)c(Cl)c4)CC3)C(=O)[C@@H]3CC=CC[C@H]23)cc1OCC.O=C(O)/C=C/C(=O)O (stereo partly drawn) | 172 to 173 °C | – | – | – | –
4 | COc1ccc(C2=NN(C3CCN(C(=O)[C@H](C)NCC(O)c4cc(N)c(N)c(Cl)c4)CC3)C(=O)[C@@H]3CC=CC[C@H]23)cc1OC.O=C(O)/C=C/C(=O)O (stereo partly drawn) | 130 to 131 °C | – | – | – | –
5 | COc1ccc(C2=NN(c3ccc(OCCCCNCC(O)c4ccc(O)c(CO)c4)cc3)C(=O)[C@@H]3CC=CC[C@H]23)cc1OC.O=C(O)/C=C/C(=O)O (stereo partly drawn) | 126 to 127 °C | – | – | – | –
6 | COc1ccc(C2=NN(C3CCN(CCCCCCNCC(O)c4cc(Cl)c(N)c(C#N)c4)CC3)C(=O)[C@@H]3CC=CC[C@H]23)cc1OC.O=C(O)/C=C/C(=O)O (stereo partly drawn) | 142 to 143 °C | – | – | – | –
7 | COc1ccc(C2=NN(CCNCC(O)c3cc(Cl)c(N)c(Cl)c3)C(=O)C3CC=CCC23)c2c1OC1(CCCC1)C2 (stereo not drawn) [Compound 8, (cis)-2-(2-[{2-(4-amino-3,5-dichlorophenyl)-2-hydroxyethyl}amino]-1-ethyl)-4-(2,3-dihydro-7-methoxybenzofuran-2-spiro-1′-cyclopentan-4-yl)-4a,5,8,8a-tetrahydro-2H-phthalazin-1-one] | 176 to 177 °C | 398 nM | 8.18 | – | –
8 | COc1ccc(C2=NN(c3ccc(OCCCCNCC(O)c4cc(Cl)c(N)c(Cl)c4)cc3)C(=O)[C@@H]3CC=CC[C@H]23)cc1OC.O=C(O)/C=C/C(=O)O (stereo partly drawn) [Compound 21, (4aS,8aR)-2-(4-{4-[2-(4-Amino-3,5-dichlorophenyl)-2-hydroxy-ethylamino]-butoxyl}-phenyl)-4-(3,4-dimethoxy-phenyl)-4a,5,8,8a-tetrahydro-2H-phthalazin-1-one fumarate] | 126 to 127 °C | 302 nM | 10 | – | –
9 | COc1ccc(C2=NN(Cc3ccc(OCCCCNCC(O)c4cc(Cl)c(N)c(Cl)c4)cc3)C(=O)[C@@H]3CC=CC[C@H]23)cc1OC.O=C(O)/C=C/C(=O)O (stereo partly drawn) [Compound 22, (4aS,8aR)-2-(4-{4-[2-(4-Amino-3,5-dichloro-phenyl)-2-hydroxy-ethylamino]-butoxy}-benzyl)-4-(3,4-dimethoxy-phenyl)-4a,5,8,8a-tetrahydro-2H-phthalazin-1-one fumarate] | 119 to 120 °C | 200 nM | 9.79 | – | –
10 | COc1ccc(C2=NN(C3CCN(C(=S)NCCCCNCC(O)c4cc(Cl)c(N)c(Cl)c4)CC3)C(=O)[C@@H]3CC=CC[C@H]23)cc1OC (stereo partly drawn) [Compound 25, 4-[(4aS,8aR)-4-(3,4-Dimethoxy-phenyl)-1-oxo-4a,5,8,8a-tetrahydro-1H-phthalazin-2-yl]-piperidine-1-carbothioic acid {4-[2-(4-amino-3,5-dichloro-phenyl)-2-hydroxy-ethylamino]-butyl}-amide] | 139 to 144 °C | 794 nM | 10.6 | – | –
11 | COc1ccc(C2=NN(C3CCN(S(=O)(=O)CCNCC(O)c4cc(Cl)c(N)c(Cl)c4)CC3)C(=O)[C@@H]3CC=CC[C@H]23)cc1OC.O=C(O)/C=C/C(=O)O (stereo partly drawn) [Compound 27, (4aS,8aR)-2-(1-{2-[2-(4-Amino-3,5-dichloro-phenyl)-2-hydroxy-ethylamino]-ethanesulfonyl}-piperidin-4yl)-4-(3,4-dimethoxy-phenyl)-4a,5,8,8a-tetrahydro-2H-phthalazin-1-one fumarate] | 169 to 171 °C | 398 nM | 11.2 | – | –
12 | COc1ccc(C2=NN(C3CCN(S(=O)(=O)CCNCC(O)c4ccc(O)c(CO)c4)CC3)C(=O)[C@@H]3CC=CC[C@H]23)cc1OC (stereo partly drawn) [Compound 29, (4aS,8aR)-4-(3,4-Dimethoxy-phenyl)-2-(1-{2-[2-hydroxy-2-(4-hydroxy-3-hydroxymethyl-phenyl)-ethylamino]-ethanesulfonyl}-piperidin-4-yl)-4a,5,8,8a-tetrahydro-2H-phthalazin-1-one] | 97 to 99 °C | – | – | – | –
13 | COc1ccc(C2=NN(C3CCN(C(=O)CCSCCNCC(O)c4cc(Cl)c(N)c(Cl)c4)CC3)C(=O)[C@@H]3CC=CC[C@H]23)cc1OC.Cl (stereo partly drawn) [Compound 30, (4aS,8aR)-2-[1-(3-{2-[2-(4-Amino-3,5-dichloro-phenyl)-2-hydroxy-ethylamino]-ethylsulfanyl}-propanoyl)-piperidin-4-yl]-4-(3,4-dimethoxy-phenyl)-4a,5,8,8a-tetrahydro-2H-phthalazin-1-one hydrochloride] | 118 to 120 °C | 200 nM | 10.7 | – | –
14 | COc1ccc(C2=NN(C3CCN(C(=O)CCS(=O)(=O)CCNCC(O)c4cc(Cl)c(N)c(C#N)c4)CC3)C(=O)[C@@H]3CC=CC[C@H]23)cc1OC (stereo partly drawn) [Compound 32, 2-Amino-3-chloro-5-{2-[2-(3-{4-[(4aS,8aR)-4-(3,4-dimethoxy-phenyl)-1-oxo-4a,5,8,8a-tetrahydro-1H-phthalazin-2-yl]-piperidin-1-yl}-3-oxo-propane-1-sulfonyl)-ethylamino]-1-hydroxy-ethyl}-benzonitrile] | 102 to 103 °C | 229 nM | 11.4 | – | –
15 | COc1ccc(C2=NN(C3CCN(C(=O)[C@H](C)NCC(O)c4cc(Cl)c(N)c(C#N)c4)CC3)C(=O)[C@@H]3CC=CC[C@H]23)cc1OC.Cl (stereo partly drawn) [Compound 33, 2-Amino-3-chloro-5-[2-((S)-2-{4-[(4aS,8aR)-4-(3,4-dimethoxy-phenyl)-1-oxo-4a,5,8,8a-tetrahydro-1H-phthalazin-2-yl]-piperidin-1-yl}-1-methyl-2-oxo-ethylamino)-1-hydroxy-ethyl]-benzonitrile hydrochloride] | 160 to 161 °C | 501 nM | 10.1 | – | –
16 | CC(C)(C)NCC(O)c1ccc(O)c(CO)c1 (stereo not drawn) [salbutamol, reference compound] | – | – | – | hardly affected the CL response | –
17 | (cis)-2-{4-(2-[{2-(4-amino-3,5-dichlorophenyl)-2-hydroxyethyl}amino]-1-ethyl}phenyl)-4-(3,4-dimethoxyphenyl)-4a,5,8,8a-tetrahydro-2H-phthalazin-1-one hemifumarate [Compound 5] | – | – | – | – | 6.70 mol/l
